Values joined by “and” are separate entries in the source; they are usually repeats but may differ in a detail not shown here. Equal entries are not always repeated. Where two headings read alike, the source gives them in different places.
What was measured:
[1] = test system: adrenocortical carcinoma (ACC); conditions: cited from earlier work
[2] = test system: advanced adrenocortical carcinoma (ACC); assay: Phase 3 study (GALACCTIC; Fassnacht et al. Lancet Oncology 2015) of OSI-906/linsitinib vs placebo in patients with advanced adrenocortical carcinoma; format: in vivo, human; conditions: prior trial, 6/90 patients, unselected
Source text: In some embodiments, the agent is an IGF1R inhibitor.
This includes 4 patients who achieved a partial response (PR) by RECIST criteria (Eisenhauer et al. Eur J. Cancer. 2009), and 2 patients who achieved long-term stable disease (SD; also by RECIST criteria, Eisenhauer et al. Eur J. Cancer. 2009).

[3] = test system: advanced adrenocortical carcinoma (ACC); conditions: cited from earlier work
[4] = individual patients G-L, non-responders to OSI-906, per patient

SMILES	Patients who recur during adjuvant therapy after surgery or progress during therapy for non-resectable disease ([1]; mitotane therapy)	Efficacy ([1]; recent studies)	Toxicity ([1]; recent studies)	Response rate [2]	Patients with favorable response / treated patients ([3]; OSI-906-treated arm, unselected advanced ACC)	Kaplan-Meier progression-free survival curves, linsitinib-treated vs placebo-treated ([3]; all patients of the trial)	Progression-free survival (days) ([3]; individual patients A-F, responders to OSI-906, per patient, '+' given after value)	Best change from baseline in sum of target lesions (%) ([3]; individual patients A-F, responders to OSI-906, per patient)	Best change from baseline in sum of target lesions (%) [3, 4]	Progression-free survival [3, 4]	Number of patients who achieved a partial response (PR) ([3]; of 90 OSI-906-treated patients, RECIST)	Drug toxicities ([3]; patients with ACC)	Primary endpoint of the Phase 3 study ([3]; patients with ACC)	Progression-free survival of long-term durable responders ([3]; small subset of linsitinib-treated patients, not seen with placebo)
Clc1ccc(C(c2ccccc2Cl)C(Cl)Cl)cc1 (centres unmarked) [mitotane]	up to 90%	only marginally effective	highly toxic											
C[C@]1(O)C[C@@H](c2nc(-c3ccc4ccc(-c5ccccc5)nc4c3)c3c(N)nccn32)C1 [OSI-906, linsitinib]				6.7%	6/90	no statistical difference	169+ days and 504+ days and 525+ days and 205+ days and 433+ days and 440+ days	−50% and −45.625% and −45% and −5.882% and 0% and −78.46%	32.26% and 35.29% and 38.28% and 48.35% and 23.51%	38 days and 41 days and 42 days (3×) and 48 days	4 patients	limited and manageable	failed to reach the primary endpoint	> 150 days
